Test results: ChEMBL document CHEMBL1131305, “1-[2(R)-(2-amino-2-methylpropionylamino)-3-(1H-indol-3-yl)propionyl]- 3-benzylpiperidine-3(S)-carboxylic acid ethyl ester (L-163,540): a potent, orally bioavailable, and short-duration growth hormone secretagogue” (J Med Chem, 1998)

Legend:
Rattus norvegicus = organism: Rattus norvegicus; test: Effective concentration for half-maximal release of growth hormone determined in the rat pituitary cell assay, normalized against standard L692,429 (60 nM).; type: functional; conditions: Pituitary gland cell
[1] = Clearance rate at 5.5 mg/kg, iv, in rat; type: ADME, organism-based; set-up: dose 5.5 mg/kg; conditions: in vivo
[2] = Half-life determined at 5.5 mg/kg, iv, in rat; type: ADME, organism-based; set-up: dose 5.5 mg/kg; conditions: in vivo
[3] = Clearance rate at 0.46 mg/kg, iv, in dogs; type: ADME, organism-based, Canis lupus familiaris; set-up: dose 0.46 mg/kg; conditions: dog, in vivo
[4] = Bioavailability in rats at 26.3 mg/kg oral dose.; type: ADME, organism-based; conditions: rat, in vivo
[5] = Volume of distribution was determined in dogs at 0.46 mg/kg, iv; type: ADME, organism-based, Canis lupus familiaris; set-up: dose 0.46 mg/kg, route intravenous; conditions: dog, in vivo, read-out: Vdss
[6] = Bioavailability in dogs at 3.8 mg/kg oral dose.; type: ADME, organism-based, Canis lupus familiaris; conditions: dog, in vivo
[7] = Maximum plasma concentration following oral administration of 3.8 mg/kg in Beagle dog; type: ADME, organism-based, Canis lupus familiaris; set-up: dose 3.8 mg/kg, route oral
[8] = Half-life determined at 0.46 mg/kg, iv, in dogs; type: ADME, organism-based, Canis lupus familiaris; set-up: dose 0.46 mg/kg; conditions: dog, in vivo
[9] = Maximum plasma concentration following oral administration of 26.3 mg/kg in rats; type: ADME, organism-based; set-up: dose 26.3 mg/kg, route oral; conditions: rat
[10] = Volume of distribution was determined in rat at 5.5 mg/kg, iv; type: ADME, organism-based; set-up: dose 5.5 mg/kg, route intravenous; conditions: in vivo, read-out: Vdss

CCOC(=O)[C@]1(Cc2ccccc2)CCN(C(=O)[C@@H](Cc2c[nH]c3ccccc23)NC(=O)C(C)(C)N)C1
EC50 (Rattus norvegicus): > 50 nM

CCOC(=O)[C@@]1(Cc2ccccc2)CCCN(C(=O)[C@@H](Cc2c[nH]c3ccccc23)NC(=O)C(C)(C)N)C1
EC50 (Rattus norvegicus): 22 nM

CCOC(=O)[C@]1(Cc2ccccc2)CCCN(C(=O)[C@@H](Cc2c[nH]c3ccccc23)NC(=O)C(C)N)C1 (stereo partly drawn)
EC50 (Rattus norvegicus): 6 nM

CCOC(=O)[C@]1(Cc2ccccc2)CCCN(C(=O)[C@@H](COCc2ccccc2)NC(=O)C(C)(C)N)C1
EC50 (Rattus norvegicus): 20 nM

CC(C)(N)C(=O)N[C@H](Cc1c[nH]c2ccccc12)C(=O)N1CCC[C@@](Cc2ccccc2)(C(=O)O)C1
EC50 (Rattus norvegicus): 190 nM

CCOC(=O)[C@]1(Cc2ccccc2)CCCN(C(=O)[C@@H](Cc2c[nH]c3ccccc23)NC(=O)C(C)(C)N)C1
clearance [1]: 206 mL/min/kg | half-life [2]: 24 min | clearance [3]: 23 mL/min/kg | bioavailability [4]: 12.1% | Vd [5]: 1.3 L/kg | bioavailability [6]: 29% | Cmax [7]: 560 ng/mL | half-life [8]: 72 min | Cmax [9]: 182 ng/mL | Vd [10]: 2.7 L/kg

CCNC(=O)[C@]1(Cc2ccccc2)CCCN(C(=O)[C@@H](Cc2c[nH]c3ccccc23)NC(=O)C(C)(C)N)C1
EC50 (Rattus norvegicus): 0.8 nM

CCOC(=O)[C@]1(Cc2ccccc2)CCCN(C(=O)[C@@H](CCCc2ccccc2)NC(=O)C(C)(C)N)C1
EC50 (Rattus norvegicus): 8 nM

CCOC(=O)[C@]1(Cc2ccccc2)CCCCN(C(=O)[C@@H](Cc2c[nH]c3ccccc23)NC(=O)C(C)(C)N)C1
EC50 (Rattus norvegicus): > 200 nM
